Row | Compound | melting point
1 | O=C(O)C1=Cc2cc(Cl)cc(COCc3ccccc3)c2OC1C(F)(F)F (stereo not drawn) [Example 113, 6-Chloro-8-(benzyloxymethyl)-2-(trifluoromethyl)-2H-1-benzopyran-3-carboxylic acid] | 133.8 to 135.4 °C
2 | O=C(O)C1=Cc2cc(Cl)cc(-c3ccco3)c2OC1C(F)(F)F (stereo not drawn) [Example 117, 6-Chloro-8-(2-furanyl)-2-(trifluoromethyl)-2H-1-benzopyran-3-carboxylic acid] | 171.5 to 173.3 °C
3 | O=C(O)C1=Cc2cc(Cl)cc(C#CCCCCl)c2OC1C(F)(F)F (stereo not drawn) [Example 118, 6-Chloro-8-(5-chloro-1-pentynyl)-2-(trifluoromethyl)-2H-1-benzopyran-3-carboxylic acid] | 154.4 to 156.4 °C
4 | CCCC#Cc1cc(Cl)cc2c1OC(C(F)(F)F)C(C(=O)O)=C2 (stereo not drawn) [Example 119, 6-Chloro-8-(1-pentynyl)-2-(trifluoromethyl)-2H-1-benzopyran-3-carboxylic acid] | 168.1 to 171.2 °C
5 | CC(C)(C)C#Cc1cc(Cl)cc2c1OC(C(F)(F)F)C(C(=O)O)=C2 (stereo not drawn) [Example 121, 6-Chloro-8-(3,3-dimethyl-1-butynyl)-2-(trifluoromethyl)-2H-1-benzopyran-3-carboxylic acid] | 218.3 to 222.4 °C
6 | O=C(O)C1=Cc2cc(Cl)cc(C#Cc3ccc(Cl)cc3)c2OC1C(F)(F)F (stereo not drawn) [Example 122, 6-Chloro-8-[(4-chlorophenyl)ethynyl]-2-(trifluoromethyl)-2H-1-benzopyran-3-carboxylic acid] | 210.4 to 211.4 °C
7 | COc1ccc(C#Cc2cc(Cl)cc3c2OC(C(F)(F)F)C(C(=O)O)=C3)cc1 (stereo not drawn) [Example 123, 6-Chloro-8-[(4-methoxyphenyl)ethynyl]-2-(trifluoromethyl)-2H-1-benzopyran-3-carboxylic acid] | 217.7 to 218.7 °C
8 | O=C(O)C1=Cc2cc(C#Cc3ccccc3)ccc2OC1C(F)(F)F (stereo not drawn) [Example 124, 6-(Phenylethynyl)-2-(trifluoromethyl)-2H-1-benzopyran-3-carboxylic acid] | 240.1 to 241.3 °C
9 | COc1cccc(-c2cc(Cl)cc3c2OC(C(F)(F)F)C(C(=O)O)=C3)c1 (stereo not drawn) [Example 126, 6-Chloro-8-(3-methoxyphenyl)-2-(trifluoromethyl)-2H-1-benzopyran-3-carboxylic acid] | 173.1 to 177.4 °C
10 | CSc1ccc(-c2cc(Cl)cc3c2OC(C(F)(F)F)C(C(=O)O)=C3)cc1 (stereo not drawn) [Example 127, 6-Chloro-8-[(4-methylthio)phenyl]-2-(trifluoramethyl)-2H-1-benzopyran-3-carboxylic acid] | 211.4 to 212.5 °C
11 | CS(=O)(=O)c1ccc(-c2cc(Cl)cc3c2OC(C(F)(F)F)C(C(=O)O)=C3)cc1 (stereo not drawn) [Example 128, 6-Chloro-8-[(4-methylsulfonyl)phenyl]-2-(trifluoromethyl)-2H-1-benzopyran-3-carboxylic acid] | 286.5 to 287.8 °C
12 | O=C(O)C1=Cc2cc(Br)cc(F)c2OC1C(F)(F)F (stereo not drawn) [Example 130, 6-Bromo-8-fluoro-2-(trifluoromethyl)-2H-1-benzopyran-3-carboxylic acid] | 206 to 208 °C
13 | O=C(O)C1=Cc2cc(-c3ccc(F)cc3)ccc2OC1C(F)(F)F (stereo not drawn) [Example 131, 6-(4-Fluorophenyl)-2-(trifluoromethyl)-2H-1-benzopyran-3-carboxylic acid] | 207 to 210 °C
14 | O=C(O)C1=Cc2cc(-c3ccccc3)ccc2OC1C(F)(F)F (stereo not drawn) [Example 132, 6-Phenyl-2-(trifluoromethyl)-2H-1-benzopyran-3-carboxylic acid] | 197 to 198 °C
15 | O=C(O)C1=Cc2cc(F)cc(Cl)c2OC1C(F)(F)F (stereo not drawn) [Example 133, 8-Chloro-6-fluoro-2-(trifluoromethyl)-2H-1-benzopyran-3-carboxylic acid] | 240 to 241 °C
16 | O=C(O)C1=Cc2cc(I)cc(I)c2OC1C(F)(F)F (stereo not drawn) [Example 134, 6,8-Diiodo-2-(trifluoromethyl)-2H-1-benzopyran-3-carboxylic acid] | 243 to 244 °C
17 | O=C(O)C1=Cc2cc(-c3ccc(Cl)s3)ccc2OC1C(F)(F)F (stereo not drawn) [Example 135, 6-(5-Chloro-2-thienyl)-2-(trifluoramethyl)-2H-1-benzopyran-3-carboxylic acid] | 205 to 206 °C
18 | O=C(O)C1=Cc2cc(-c3cccs3)ccc2OC1C(F)(F)F (stereo not drawn) [Example 136, 6-(2-thienyl)-2-(trifluoromethyl)-2H-1-benzopyran-3-carboxylic acid] | 209 to 212 °C
19 | O=C(O)C1=Cc2cc(-c3ccc(Cl)cc3)ccc2OC1C(F)(F)F (stereo not drawn) [Example 137, 6-(4-Chlorophenyl)-2-(trifluoromethyl)-2H-1-benzopyran-3-carboxylic acid] | 212 to 213 °C
20 | COc1ccc(-c2cc(Cl)cc3c2OC(C(F)(F)F)C(C(=O)O)=C3)cc1 (stereo not drawn) [Example 141, 6-Chloro-8-(4-methoxyphenyl)-2-trifluoromethyl-2H-1-benzopyran-3-carboxylic acid] | 194 to 196 °C
21 | C=CC1=C(C(=O)O)C(C(F)(F)F)Oc2ccc(Cl)cc21 (stereo not drawn) [Example 142, 6-Chloro-2-(trifluoromethyl)-4-ethenyl-2H-1-benzopyran-3-carboxylic acid] | 143 to 145 °C

Row | Compound | melting point
22 | O=C(O)C1=C(c2ccccc2)c2cc(Cl)ccc2OC1C(F)(F)F (stereo not drawn) [Example 143, 6-Chloro-2-(trifluoromethyl)-4-phenyl-2H-1-benzopyran-3-carboxylic acid] | 225.5 to 226.6 °C
23 | O=C(O)C1=C(c2cccs2)c2cc(Cl)ccc2OC1C(F)(F)F (stereo not drawn) [Example 144, 6-Chloro-4-(2-thienyl)-2-(trifluoromethyl)-2H-1-benzopyran-3-carboxylic acid] | 200.8 to 206.7 °C
24 | Cc1ccc2c(c1)C=C(C(=O)O)C(C(F)(F)F)S2 (stereo not drawn) [Example 145, 6-Methyl-2-(trifluoromethyl)-2H-1-benzothiopyran-3-carboxylic acid] | 180.8 to 184.2 °C
25 | Cc1cc(C)c2c(c1)C=C(C(=O)O)C(C(F)(F)F)S2 (stereo not drawn) [Example 146, 6,8-Dimethyl-2-(trifluoromethyl)-2H-1-benzothiopyran-3-carboxylic acid] | 220 to 225 °C (dec.)
26 | CC(C)(C)c1ccc2c(c1)C=C(C(=O)O)C(C(F)(F)F)S2 (stereo not drawn) [Example 147, 6-(1,1-Dimethylethyl)-2-(trifluoromethyl)-2H-1-benzothiopyran-3-carboxylic acid] | 183.8 to 184.6 °C
27 | Cc1ccc2c(c1)SC(C(F)(F)F)C(C(=O)O)=C2 (stereo not drawn) [Example 148, 7-Methyl-2-(trifluoromethyl)-2H-1-benzothiopyran-3-carboxylic acid] | 186.6 to 191.9 °C
28 | Cc1cc2c(cc1C)SC(C(F)(F)F)C(C(=O)O)=C2 (stereo not drawn) [Example 149, 6,7-Dimethyl-2-(trifluoromethyl)-2H-1-benzothiopyran-3-carboxylic acid] | 235 to 237 °C
29 | Cc1cccc2c1SC(C(F)(F)F)C(C(=O)O)=C2 (stereo not drawn) [Example 150, 8-Methyl-2-(trifluoromethyl)-2H-1-benzothiopyran-3-carboxylic acid] | 224 to 225 °C
30 | O=C(O)C1=Cc2ccccc2SC1C(F)(F)F (stereo not drawn) [Example 151, 2-(Trifluoromethyl)-2H-1-benzothiopyran-3-carboxylic acid] | 187 to 190 °C
31 | O=C(O)C1=Cc2ccc(Cl)cc2SC1C(F)(F)F (stereo not drawn) [Example 153, 7-Chloro-2-(trifluoromethyl)-2H-1-benzothiopyran-3-carboxylic acid] | 225.7 to 227.3 °C
32 | O=C(O)C1=Cc2cc(F)c(F)cc2NC1C(F)(F)F (stereo not drawn) [Example 159, 6,7-Difluoro-1,2-dihydro-2-(trifluoromethyl)-3-quinolinecarboxylic acid] | 186.6 to 188.9 °C
33 | O=C(O)C1=Cc2cc(OC(F)(F)F)ccc2NC1C(F)(F)F (stereo not drawn) [Example 162, 1,2-Dihydro-6-(trifluoromethoxy)-2-(trifluoromethyl)-3-quinolinecarboxylic acid] | 127.7 to 128.9 °C
34 | O=C(O)C1=Cc2cc(C(F)(F)F)ccc2NC1C(F)(F)F (stereo not drawn) [Example 163, 6-(Trifluoromethyl)-1,2-dihydro-2-(trifluoromethyl)-3-quinolinecarboxylic acid] | 150 to 156 °C
35 | N#Cc1ccc2c(c1)C=C(C(=O)O)C(C(F)(F)F)N2 (stereo not drawn) [Example 164, 6-Cyano-1,2-dihydro-2-(trifluoromethyl)-3-quinolinecarboxylic acid] | 238 to 240 °C
36 | O=C(O)C1=Cc2cc(Cl)ccc2N(Cc2ccc(C(F)(F)F)cc2)C1C(F)(F)F (stereo not drawn) [Example 166, 6-Chloro-1,2-dihydro-2-(trifluoromethyl)-1-[[4-(trifluoromethyl)phenyl]methyl]-3-quinolinecarboxylic acid] | 229 to 231 °C
37 | O=C(O)C1=Cc2cc(Cl)ccc2N(Cc2ccc(Cl)cc2)C1C(F)(F)F (stereo not drawn) [Example 167, 6-Chloro-1-[(4-Chlorophenyl)methyl]-1,2-dihydro-2-(trifluoromethyl)-3-quinolinecarboxylic acid] | 250 to 253 °C
38 | COc1ccc(CN2c3ccc(Cl)cc3C=C(C(=O)O)C2C(F)(F)F)cc1 (stereo not drawn) [Example 168, 6-Chloro-1,2-dihydro-2-(trifluoromethyl)-1-[[4-(methoxy)phenyl]methyl]-3-quinolinecarboxylic acid] | 196 to 197 °C
39 | N#Cc1ccc(CN2c3ccc(Cl)cc3C=C(C(=O)O)C2C(F)(F)F)cc1 (stereo not drawn) [Example 169, 6-Chloro-1-[(4-cyanophenyl)methyl]-1,2-dihydro-2-(trifluoromethyl)-3-quinolinecarboxylic acid] | 258 to 260 °C
40 | O=C(O)C1=Cc2cc(Cl)ccc2N(Cc2ccc([N+](=O)[O-])cc2)C1C(F)(F)F (stereo not drawn) [Example 170, 6-Chloro-1,2-dihydro-1-[(4-nitrophenyl)methyl]-2-(trifluoromethyl)-3-quinolinecarboxylic acid] | 225 to 228 °C
41 | CCN1c2ccc(Cl)cc2C=C(C(=O)O)C1C(F)(F)F (stereo not drawn) [Example 171, 6-Chloro-1,2-dihydro-1-ethyl-2-(trifluoromethyl)-3-quinolinecarboxylic acid] | 201 to 202 °C
42 | O=C(O)C1=Cc2cc(C(O)C(F)(F)F)ccc2OC1C(F)(F)F (stereo not drawn) [Example 173, 6-(2,2,2-Trifluoro-1-hydroxyethyl)-2-(trifluoromethyl)-2H-1-benzopyran-3-carboxylic acid] | 114 to 120 °C

Source: patent publication US7138411B2, “Substituted benzopyran derivatives for the treatment of inflammation” (G.D. Searle & Co., priority 1997, dated 2006)
